Test results published in patent US5217950A, “Nisin compositions for use as enhanced, broad range bactericides” (Applied Microbiology, Inc., priority 1992, dated 1993).
Where no end group is shown, it is not given here.

Key:
E. coli = assay: bactericidal activity: percent bacterial survival after treatment, suspension in buffer; assay type: cell-based, Escherichia coli; conditions: for Percentage E. coli Survival at 2 hours: 20 mM Tris pH 8.0, 37° C
Experimental: (§1) All tests in the following examples were performed at 37° C. The efficacy of the enhanced broad range bactericides was determined by assaying bactericidal activity as measured by the percent bacterial survival after treatment with the bactericide. Generally, after incubation of a 10^7 cell per ml suspension of target species with the novel bactericide for specified lengths of time, bacteria were collected by centrifugation for 2 minutes. The bacterial pellet was washed free of the bactericide with a rescue buffer, termed herein Phage buffer (50 mM Tris-HCl buffer pH 7.8, 1 mM MgSO4, 4 mM CaCl2, 0.1M Nacl, and 0.1% gelatin), resuspended and serially diluted into Phage buffer, and 100 μl of the suspended bacteria were spread on nutrient agar plates. Surviving bacteria were determined by scoring colony forming units (CFU) after incubation for 24-48 hours at 37° C.
The effects of the bactericide were measured as a function of percentage bacteria survival after 2 hours.
Incubations were performed in 20 mM Tris-HCl, […] at 37° C.

Streptococcus mutans [1] = assay: rapid bactericidal activity in the presence of divalent cation, 10% Fetal Calf Serum; assay type: cell-based; conditions: Nisin 3, no EDTA, CaCl3 0 mM
Experimental: Incubations were performed in 10% Fetal Calf Serum at 37° C.

S. typhimurium = assay: bactericidal activity: percent bacterial survival after treatment, suspension in buffer; assay type: cell-based, Salmonella typhimurium
Experimental: as §1
The control (Test #1) is identical to the control of Example 1 (Table 1).

[2] = system: S. typhimurium on chicken muscle; assay: bactericidal activity on inoculated chicken muscle, survival of unadhered cells; assay type: cell-based, Salmonella typhimurium
Experimental: (§2) All tests in the following examples were performed at 37° C. The efficacy of the enhanced broad range bactericides was determined by assaying bactericidal activity as measured by the percent bacterial survival after treatment with the bactericide. Generally, after incubation of a 10^7 cell per ml suspension of target species with the novel bactericide for specified lengths of time, bacteria were collected by centrifugation for 2 minutes. The bacterial pellet was washed free of the bactericide with a rescue buffer, termed herein Phage buffer (50 mM Tris-HCl buffer pH 7.8, 1 mM MgSO4, 4 mM CaCl2, 0.1M Nacl, and 0.1% gelatin), resuspended and serially diluted into Phage buffer, and 100 μl of the suspended bacteria were spread on nutrient agar plates. Surviving bacteria were determined by scoring colony forming units (CFU) after incubation for 24-48 hours at 37° C. An effective bactericide according to this invention is one which allows less than 0.1% of the initial viable count of the bacteria to survive.
Incubations were performed in either 50 mM sodium acetate, pH 5.0, or 20 mM Tris, pH 8.0 at 37° C.
Cubes of chicken muscle were cleansed with sodium hypochlorite and povidone iodine prior to use. To inoculate the tissue, the cubes of chicken muscle were dipped into a 10^8 cells/ml suspension of S. typhimurium in 20 mM Tris HCl, pH 8.0. Excess moisture was removed from dipped cubes by tapping. The chicken samples were placed into sufficient buffer containing the nisin composition to cover the tissue and incubated for 2 hours at 37° C. after which the tissue was removed to sufficient Phage buffer to cover the tissue. The bacteria remaining in the test solution were collected by centrifugation, washed with Phage buffer, and combined with bacteria washed from the tissue by Phage buffer. The combined samples (termed "unadhered" cells) were serially diluted and 100 μl aliquots were plated for determination of surviving bacteria.
(§3) Cubes of chicken muscle were cleansed with sodium hypochlorite and povidone iodine prior to use. To inoculate the tissue, the cubes of chicken muscle were dipped into a 10^8 cells/ml suspension of S. typhimurium in 20 mM Tris HCl, pH 8.0. Excess moisture was removed from dipped cubes by tapping. The tissue was placed into sufficient buffer containing the nisin compositions to cover the tissue, and incubated for 2 hours at 37° C. after which the tissue was removed to sufficient Phage buffer to cover the tissue. The bacteria remaining in the test solution were collected by centrifugation, washed with Phage buffer, and combined with bacteria washed from the tissue by Phage buffer. The combined samples (termed "unadhered" cells) were serially diluted and 100 μl aliquots were plated for determination of surviving bacteria.
as §3, with “cleaned” for “cleansed”, “50” for “20”, “sodium acetate buffer,” for “Tris HCl,”, “5.0.” for “8.0.”, “containing” for “containing the”

Listeria monocytogenes [3] = assay: bactericidal activity in milk; assay type: cell-based
Experimental: as §2
An example of where the application of nisin is limited by its available activity is illustrated by the data in Table 15B.
(§4) Incubations were in milk at 37° C.

Streptococcus agalactiae = assay: bactericidal activity in milk; assay type: cell-based
Experimental: as §2
However, the combination of the two agents, 0.1% monolaurin and nisin 0.2 μg/ml, is extremely potent towards S. agalactiae. […] Thus, when the application of nisin is limited by its available activity, a bactericide comprising nisin with a surfactant can be expected to be more useful.
as §4

Streptococcus mutans [4] = assay: bactericidal activity and kinetics: percent bacterial survival in Tris buffer; assay type: cell-based; conditions: for % Survival: 1.0 mM EDTA, nisin 0, 20 mM Tris-HCl pH 7.3
Experimental: Incubations were performed in 20 mM Tris-HCl, pH 8.0 at 37° C.
The suspensions were incubated for various times ranging from 0.5 to 60 minutes with the bactericides. The bactericidal efficacy of the bactericides was estimated by determining the percent survival of bacteria.
Incubations were performed in 20 mM Tris-HCl, pH 7.3 at 37° C.

Coryneform bacteria = assay: bactericidal activity: percent bacterial survival in Tris buffer; assay type: cell-based, mixed population of axillary Coryneform bacteria; conditions: 20 mM Tris-HCl pH 8.0
Experimental: as §1
(§5) Incubations were performed in 20 mM Tris-HCl, pH at 8.0 at 37° C.

K. pneumoniae = assay: bactericidal activity: percent bacterial survival after treatment, suspension in buffer; assay type: cell-based, Klebsiella pneumoniae; conditions: 20 mM Tris pH 8.0, 37° C
Experimental: as §1
The effect was measured as a function of percentage bacterial survival after 2 hours.

Listeria monocytogenes [5] = assay: bactericidal activity: percent bacterial survival in Tris buffer; assay type: cell-based; conditions: 20 mM Tris-HCl pH 8.0
Experimental: as §2, §5

Staphylococcus aureus = assay: bactericidal activity: percent bacterial survival, influence of pH and EDTA; assay type: cell-based
Experimental: as §2
Incubations were performed in 50 mM sodium acetate buffer, pH 5.0 or 20 m
TrisHCl buffer, pH 8.0 at 37° C.

## Triton X-100
E. coli; Triton X-100 1.0%, nisin 0, EDTA 0
  Percentage E. coli Survival at 2 hours: 100%
E. coli; Triton X-100 1.0%, tests #3 and #4 of Table 4
  bactericidal activity towards E. coli: no significant bactericidal activity

## nisin (ITSISLCTPGCKTGALMGCNMKTATCHCSIHVSK; cysteine pairing not given here; also: lantibiotic, modifications not placed; UniProt P13068 24-57, looked up) [polypeptide bacteriocin with antimicrobial properties produced by strains of Streptococcus lactis]
Streptococcus mutans [1]
  % survival at 1 min.: 2.9%
E. coli; nisin 30 μg/ml, EDTA 0, Triton X-100 0
  Percentage E. coli Survival at 2 hours: 27%
E. coli; nisin 100 μg/ml, EDTA 0, Triton X-100 0
  Percentage E. coli Survival at 2 hours: 25%
E. coli; nisin 300 μg/ml, EDTA 0, Triton X-100 0
  Percentage E. coli Survival at 2 hours: 8.5%
S. typhimurium; nisin 10 μg/ml, EDTA 0, BSA 0, Tris buffer (Table 8)
  % Survival at 2 hours: 51.3%
S. typhimurium; nisin 50 μg/ml, EDTA 0, 20 mM Tris pH 8.0, 37° C
  Percentage S. typhimurium Survival at 3 hours: 7.0%
S. typhimurium; nisin 100 μg/ml, EDTA 0, BSA 0, Tris buffer (Table 8)
  % Survival at 2 hours: 1.6%
S. typhimurium; nisin 100 μg/ml, EDTA 0, 20 mM Tris pH 8.0, 37° C
  Percentage S. typhimurium Survival at 3 hours: 1.6%
S. typhimurium; nisin 100 μg/ml, EDTA 0, 20 mM Tris pH 8.0, 37° C (Table 6)
  % Survival at 2 hours: 4%
S. typhimurium; nisin 100 μg/ml, EDTA 0, 50 mM sodium acetate pH 5.0, 37° C
  % Survival at 2 hours: 0.6%
[2]; nisin 300 μg/ml, EDTA 0, 1% Bovine serum albumin, 20 mM Tris pH 8.0
  % Survival at 2 hours (unadhered cells): 0.02%
[2]; nisin 300 μg/ml, EDTA 0, 20 mM Tris pH 8.0
  % Survival at 2 hours (unadhered cells): 7.5%
[2]; nisin 300 μg/ml, EDTA 0, 50 mM sodium acetate pH 5.0
  % Survival at 2 hours (unadhered cells): 0.1%
Listeria monocytogenes [3]; nisin 100 μg/ml, Monooleate 0, 37° C
  % Survival 2 hr: 0.56%
Streptococcus agalactiae; nisin 0.02 μg/ml, Monolaurin 0, 37° C
  % survival at 2 h: 100%
Streptococcus agalactiae; nisin 0.2 μg/ml, Monolaurin 0, 37° C
  % survival at 2 h: 2.2%
Streptococcus mutans [4]; nisin 0.1 μg/ml, EDTA 0, 20 mM Tris-HCl pH 8.0
  % Survival after 2 hr: 4.3%
Coryneform bacteria; nisin 3 μg/ml, EDTA 0
  % Survival 2 hr: 0.22%
K. pneumoniae; nisin 100 μg/ml, EDTA 0
  % Survival at 2 hours: 50%
K. pneumoniae; nisin 300 μg/ml, EDTA 0
  % Survival at 2 hours: 38%
Listeria monocytogenes [5]; nisin 3.0 μ/ml, EDTA 0
  % Survival after 2 hr: 0.71%
Staphylococcus aureus; nisin 3.0 μg/ml, EDTA 0, pH 5.0
  % Survival 2 hr: 0.6%
Staphylococcus aureus; nisin 3.0 μg/ml, EDTA 0, pH 8.0
  % Survival 2 hr: 7.4%

## CCCCCCCCCCCC(=O)OCC(O)CO (stereo not drawn) [Monolaurin, monolaurin]
Streptococcus agalactiae; Monolaurin 0.01%, nisin 0, 37° C
  % survival at 2 h: 100%
Streptococcus agalactiae; Monolaurin 0.1%, nisin 0, 37° C
  % survival at 2 h: 4.5%

## monooleate
Listeria monocytogenes [3]; Monooleate 0.1%, nisin 0, 37° C
  % Survival 2 hr: 67%
Listeria monocytogenes [3]; Monooleate 1.0%, nisin 0, 37° C
  % Survival 2 hr: 63%
Listeria monocytogenes [3]; monooleate by itself
  bactericidal activity towards L. monocytogenes: no bactericidal activity

## O=C([O-])CN(CCN(CC(=O)[O-])CC(=O)O)CC(=O)O.[Na+].[Na+] [EDTA]
E. coli; EDTA 1.0 mM, nisin 0, 20 mM Tris-HCl pH 7.0
  % survival at 1 min.: 100%
S. typhimurium; EDTA 1.0 mM, BSA 1.0%, nisin 0, 20 mM Tris pH 8.0
  % Survival at 2 hours: 63%
S. typhimurium; EDTA 2.0 mM, nisin 0, 20 mM Tris pH 8.0, 37° C
  % Survival at 2 hours: 8.7%
S. typhimurium; EDTA 10 mM, nisin 0, 20 mM Tris pH 8.0, 37° C
  % Survival at 2 hours: 14%
S. typhimurium; EDTA 20 mM, nisin 0, 20 mM Tris pH 8.0, 37° C
  Percentage S. typhimurium Survival at 3 hours: 2.5%
S. typhimurium; EDTA 50 mM, nisin 0, 50 mM sodium acetate pH 5.0, 37° C
  % Survival at 2 hours: 3.5%
S. typhimurium; EDTA 100 mM, nisin 0, 20 mM Tris pH 8.0, 37° C
  % Survival at 2 hours: 45%
[2]; EDTA 1.0 mM, BSA 1.0%, nisin 0, pH 8.0
  % Survival at 2 hours: 27%
[2]; EDTA 10 mM, nisin 0, 20 mM Tris pH 8.0
  % Survival at 2 hours (unadhered cells): 5.2%
[2]; EDTA 10 mM, nisin 0, 50 mM sodium acetate pH 5.0 (Table 7)
  % Survival at 2 hours (unadhered cells): 6.4%
Streptococcus mutans [4]; incubation 3 minutes
  % Survival: 100%
Streptococcus mutans [4]; incubation 60 minutes
  % Survival: 100%
Coryneform bacteria; EDTA 0.3 mM, nisin 0
  % Survival 2 hr: 4.6%
Coryneform bacteria; EDTA 1.0 mM (last column, after 3.0), nisin 0
  % Survival 2 hr: 36%
Coryneform bacteria; EDTA 1.0 mM, nisin 0
  % Survival 2 hr: 3.6%
Coryneform bacteria; EDTA 3.0 mM, nisin 0
  % Survival 2 hr: 8%
K. pneumoniae; EDTA 20 mM, nisin 0
  % Survival at 2 hours: 22%
Listeria monocytogenes [5]; EDTA 1.0 mM, nisin 0
  % Survival after 2 hr: 84%
Staphylococcus aureus; EDTA 0.3 mM, nisin 0, pH 8.0
  % Survival 2 hr: 100%
Staphylococcus aureus; EDTA 1.0 mM, nisin 0, pH 8.0
  % Survival 2 hr: 81%
Staphylococcus aureus; EDTA 3.0 mM, nisin 0, pH 5.0
  % Survival 2 hr: 100%
Staphylococcus aureus; EDTA 3.0 mM, nisin 0, pH 8.0
  % Survival 2 hr: 100%
Staphylococcus aureus; EDTA 10 mM, nisin 0, pH 8.0
  % Survival 2 hr: 100%
Staphylococcus aureus; EDTA 30 mM, nisin 0, pH 8.0
  % Survival 2 hr: 100%
